Experimental data reported in patent US8206756B2, “Herbal composition for inflammatory disorders” (Piramal Life Sciences Limited, priority 2005, dated 2012).

What was measured:
[1] = tested on: atherosclerosis / hyperlipidemia; assay: Atherosclerosis model of high fat-fed hyperlipidemic hamsters; type: in vivo, Golden Syrian Hamsters; conditions: Fenofibrate 100 mpk, extract 200 mpk
Experimental: The treatment effects of the extract of example 1 on prevention of aortic lesion were determined by using atherosclerosis model of high fat-fed hyperlipidemic hamster.
Details of animals used: Male Golden Syrian Hamsters, which were 7-8 weeks old and weighed approximately 100 g to 120 g, were used for the experiment. Hamsters were randomly selected for treatment group placement. Animals were earmarked using a paint marker. Animals were separated and housed in groups of three in appropriately sized solid-bottom cages. Room lighting conditions were adjusted to 12 hour light and 12 hour dark cycle. During the acclimation period the diet was Purina 5001 (Research Diets, Inc. New Brunswick, N.J., USA). A high-fat diet consisting of Purina 5001 plus 10% coconut oil, 10% corn oil, 0.5% cholesterol, and 5% fructose was administered beginning on day 1 and continued throughout the duration of study. Hamsters were provided purified tap water throughout the study.
For pretreatment lipid values, animals were bled by retro-orbital puncture following an 18-hour fast and ˜1 ml of blood was collected in a 3 ml Vacutainer® tube containing K3 EDTA. Each blood sample was centrifuged (4000 rpm, 20 min, 4° C. using an Eppendorf C5804R) and the plasma separated and was analyzed for determination of triglyceride (TG), total cholesterol, high density cholesterol (HDL) and low density cholesterol (LDL).
Preparation of dosing solution: The extract of example 1 was dissolved in vehicle [CMC (0.5%)/Tween 80 (2%)] for 200 mpk (5 ml/kg BW) dosing. The resulting solution was a fine suspension after 12-15 minutes gentle sonication. Aliquots were prepared (˜2.3 ml/vial) and stored in a freezer and were used daily.
All groups of animals were dosed orally either with vehicle or with extract of example 1 (200 mpk) for 58 days. […]
On day 58, following the 16-18 hour fasting period, animals were bled by retro-orbital puncture and ˜1 ml of blood was collected in a 3 ml Vacutainer® tube containing K3 EDTA. Each blood sample was centrifuged (4000 rpm, 20 min, 4° C. using an Eppendorf C5804R) and the plasma sample was analyzed for TG, total cholesterol, HDL and LDL.
Necropsy: On day 59, the animals were fasted for 4 h and euthanized under carbon dioxide and plasma samples were collected via cardiac puncture for lipid profiling and other analyses. […] The heart, aortic arch, thoracic and abdominal aorta up to femoral bifurcation were removed and placed in 10% formalin for en face lesion quantification.
En face analysis: Connective fascia and adventia surrounding the thoracic aorta were removed as much as possible. […] Quantitation was performed using a Nikon SMZ-U microscope with an Optronics Camera head recording the photographs. […] Quantitation was done based on percentage lesion per area.

DSS-induced colitis = assay: DSS-induced murine model of acute colitis; type: in vivo, C57BL/6J mice; conditions: 15 mg/kg injected from day 5 onwards till death
hPBMCs = assay: Cellular viability test (MTS) in hPBMCs; type: cell-based, human; conditions: hPBMC
Experimental: (§1) Primary screening—Human peripheral blood mononuclear cells (hPBMCs). TNF-α production by lipopolysaccharides (LPS) in hPBMCs was measured according to the method described by Jansky, L. et al (Physiol. Res. 52: 593-598, (2003)). Blood was collected from healthy donors into Potassium EDTA vacutainer tubes (BD vacutainer). The PBMCs were isolated using gradient centrifugation in Histopaque-1077 solution (Sigma). Isolated PBMCs were suspended in RPMI 1640 culture medium (Gibco BRL, Pasley, UK) containing 10% fetal bovine serum (FBS) (Hyclone, Utah, USA), 100 U/ml penicillin (Sigma Chemical Co. St Louis, Mo.) and 100 μg/ml streptomycin (Sigma Chemical Co. St Louis, Mo.). The cell concentration was adjusted to 1×10^6 cells/ml. The viability as determined by trypan blue dye exclusion was uniformly ≧98%. The cell suspension (100 μl) was added to the wells of a 96-well culture plate. Following cell plating, 79 μl of the culture medium and 1 μl of eight different concentrations of the test samples (final concentration 0.03, 0.1, 0.3, 1, 3, 10, 30, 100 μg/ml) dissolved in DMSO (dimethylsulfoxide, Sigma, Mo., USA) were added to the cells. The final concentration of DMSO was adjusted to 0.5%. The vehicle (0.5% DMSO) was used as control. Rolipram (100, 300 μM) was used as a standard. […] The % inhibition was recorded. Percent cytotoxicity of the test samples compared to control was evaluated.

TNF-α = assay: LPS-induced TNF-α production in hPBMCs (ELISA); type: cell-based; conditions: Homo sapiens, LPS 1 μg/ml, 5 h, hPBMC
Experimental: as §1, with “standard. The plates were incubated for 30 min at 37° C. in an atmosphere of 5% CO2. Finally, 20 μl (10 μg/ml) per well of LPS, (Escherchia coli 0127:B8, Sigma Chemical Co., St. Louis, Mo.) was added, for a final concentration of 1 μg/ml.” for “standard.”
The effect of the plant extract on the proinflammatory cytokines: TNF-α, interleukin-1β (IL-1β), interleukin-6 (IL-6) and interleukin-8 (IL-8) was measured using the supernatants generated in the primary screening assay. […]
The effect of the Compound 1, on the proinflammatory cytokines: TNF-α interleukin-1β (IL-1β), interleukin-6 (IL-6) and interleukin-8 (IL-8) was measured using the supernatants generated in the primary screening assay. […]

[2] = tested on: THP-1 cell adhesion to HUVECs; assay: Adhesion of THP-1 mononuclear cells to HUVEC monolayers; type: cell-based, human; conditions: for Fluorescence Intensity: TNF-α 1 ng/ml; for Fold of control: unstimulated DMSO control = 1, stimulated = 18
Experimental: Adhesion studies were performed with the promonocytic cell line THP-1, which has been established as a useful model for monocytes in adhesion studies in Circ. Res., 97, 236-243, 2005, with modifications. THP-1 cells were washed twice with labeling medium (M200 plus LSGS). THP-1 cells (6×10^5 cells per ml) were labeled with 10 μg/ml bis-carboxyethyl-carboxyfluorescein acetoxymethylester (a fluorescent probe, BCECF-AM; Sigma) for 30 min at RT. After quenching with 0.1% BSA, the pellet was resuspended in labeling medium. To evaluate monocyte adhesion, HUVEC monolayers treated with TNF-α (1 ng/ml) in the presence or absence of various concentrations of test sample. The media was removed, washed and labeled-THP-1-cells were added to the wells (6×10^4 cells per well) and incubated for 10 minutes at RT in the dark. After co incubation, the wells were washed, filled with lysis buffer (0.1% Triton-X in 1.5 M Tris buffer) and incubated for 30 min. The fluorescence was measured using a fluorescent reader (PolarStar Optima, BMG Labtech) at an excitation peak of 485 nm and an emission peak of 520 nm. Values are means±SEM, representing fluorescent adhesion data. BAY 11-7082 [(E)-3-(4-methylphenylsulfonyl)-2-propenenitrile] was used as a standard and DMSO as vehicle control.

`CC(C)OC(=O)C(C)(C)Oc1ccc(C(=O)c2ccc(Cl)cc2)cc1` [Fenofibrate] was tested, and the “Plasma triglycerides level, Mean” value ([1]; day 58, oral, vehicle mean 2321.3) was 449.2, the “Plasma triglycerides level, % Change” value ([1]; day 58, versus vehicle) was −81% and the “Atherosclerosis progression (percentage lesion per area, en face aorta), Mean” value ([1]; day 59, vehicle mean 0.5025) was 0.0834. The “Atherosclerosis progression, % Change” value ([1]; versus vehicle) was −84%.
For “infliximab: Monoclonal antibody drug (Centocor), injected 15 mg/kg in the DSS colitis model”, the “Survival against DSS-induced colitic death” value (DSS-induced colitis) was “all animals in this group were dead”.
With `COc1ccc(C2CNC(=O)C2)cc1OC1CCCC1` (stereo not shown) [Rolipram] the “% Toxicity at 5 h” value (hPBMCs; 100 μM) was 2%, the “% Toxicity at 5 h” value (hPBMCs; 300 μM) was 21% and the inhibition at 100 µM (TNF-α; 100 μM) was 84%. The inhibition at 300 µM (TNF-α; 300 μM) was 90%.
With `Cc1ccc(S(=O)(=O)/C=C/C#N)cc1` [BAY 11-7082, (E)-3-(4-methylphenylsulfonyl)-2-propenenitrile, reference compound] the “Fluorescence Intensity” value ([2]; 0.5 μM) was 18442, the Fold of control ([2]; 0.5 μM) was 10 and the “Fluorescence Intensity” value ([2]; 1 μM) was 14271. For the same compound, the Fold of control ([2]; 1 μM) was 8.
